Results published in PMC4142417, “Epigenetic Impacts of Ascorbate on Human Metastatic Melanoma Cells” (Frontiers in Oncology, 2014).
Read-outs that look alike come from different tables or passages of the source.

Columns and labels:
BLM melanoma cells = test: Cell-cycle analysis (propidium iodide, FACS); assay type: cell-based, human; details: 8 mM for 1 h
Method: BLM cells were incubated with ascorbate at 8 mM. After 0–24 h (in 2 h intervals) the cells (1 × 10^6) were harvested, washed with cold PBS, fixed with 75% ethanol, and incubated at 4°C for at least 1 h. Cells were then centrifuged and washed twice in cold PBS. Intracellular DNA was labeled with propidium iodide solution [propidium iodide […] (Sigma) and RNase […] (Thermo Scientific) in PBS] and incubated at 4°C for 30 min in the dark. Cell cycle was analyzed using flow cytometry and FACSDiva software (BD Biosciences, Heidelberg, Germany). As shown previously ([5]), pharmacological doses of ascorbate in the low millimolar-range induce cell death in human cancer cells. However, since in the latter publication we only performed end-point analyses 24 h after incubation of the cells with ascorbate, for the current project we exposed BLM cells to pharmacological 8 mM ascorbate for 1 h, and the cells were ethanol-fixed every 2 h for 24 h to closely monitor cell-cycle alterations at 2 h intervals over 24 h. The cell cycle was analyzed with FACS after staining of the cells with propidium iodide. […] At 12 h post ascorbate exposure only a small percentage of the BLM cells were shifted toward the sub-G1 fraction of cells. Therefore, the 12 h time point after ascorbate exposure was chosen for the following experiments.  Figure 2 Pharmacological ascorbate induces apoptosis in human metastatic BLM melanoma cells in a time-dependent manner. BLM cells were treated with 8 mM ascorbate for 1 h. Cells were ethanol-fixed every 2 h for 24 h, stained with propidium iodide, and cell cycle was analyzed with FACS. Depicted are the FACS plots for the untreated control cells and for 2, 4, 6, 8, 12, 16, 20, and 24 h after ascorbate exposure. […] Gray colored graphs indicate the control cells; black colored graphs (2–8 h) the initial shift into G2/M phase; red colored graphs (12–24 h) the subsequent shift into sub-G1 fraction.

[1] = test system: human HDACs (HeLa nuclear extract); test: HDAC-inhibitor screening assay with HeLa nuclear extract; assay type: biochemical; details: 5–8000 μM, 2 h at 37°C
Method: Determination of a possible HDAC-inhibitor activity of ascorbate was done by using the HDAC assay kit (Active Motif, Rixensart, Belgium). Ascorbate was diluted in assay buffer to the final concentrations of 5, 10, 20, 50, 100, 200 μM, and 8 mM. Assay was performed according to manufacturer’s protocol. Briefly, ascorbate was incubated with HeLa nuclear extract as a source of human HDACs for 2 h at 37°C and the developing time was set to 10 min. Each experiment was performed in triplicates and repeated three times.
(A) Overall HDAC inhibition in cellular extracts of the human cell line HeLa by increasing concentrations of ascorbate (5–8000 μM). As reference inhibitor 100 μM suberoylanilide hydroxamic acid (SAHA) was used. Every concentration was tested three times in triplicates. (B) Specific fluorometric profiling assay using recombinant human HDACs of classes I, II, and IV. Specific inhibition values were generated for the treatment with 50 μM and 8 mM ascorbate. Inhibition values for every HDAC were yielded by two experiments, each performed in duplicates. Shown are mean ± SD. One-way ANOVA Dunnett’s multiple comparison test, n.s. indicates not significant.

[2] = test system: human HDAC1, HDAC2, HDAC3, HDAC4, HDAC5, HDAC6, HDAC7, HDAC8, HDAC9, HDAC10, and HDAC11; test: HDAC-inhibitor profiling assay (fluorometric, recombinant HDACs of classes I, II, and IV); assay type: biochemical; details: 50 μM and 8 mM ascorbate
Method: The HDAC profiling assay was performed on basis of fluorometric measurement by Scottish Biomedical (Scottish Biomedical, Glasgow, UK). The percentage inhibition values of 50 μM and 8 mM ascorbate against human HDAC1, HDAC2, HDAC3, HDAC4, HDAC5, HDAC6, HDAC7, HDAC8, HDAC9, HDAC10, and HDAC11 was determined. Both concentrations of ascorbate were tested in two experiments, each in duplicates.

[3] = test system: DNA methyltransferase (DNMT) activity in MeWo melanoma cells; test: DNMT activity in nuclear extracts of treated MeWo cells; assay type: cell-based, human; details: 200 μM for 1 h, nuclear extract 12 h after treatment
Method: (§1) DNMT activity was analyzed in the nuclear extracts with the DNMT activity/inhibition assay (Active Motif) according to the procedure described by the manufacturer.
(§2) Global DNMT activity was determined in nuclear extracts of MeWo and BLM cells 12 h after 1 h treatment with 200 μM or 8 mM ascorbate.

[4] = test system: DNA methyltransferase (DNMT) activity in BLM melanoma cells; test: DNMT activity in nuclear extracts of treated BLM cells; assay type: cell-based, human; details: 200 μM for 1 h, nuclear extract 12 h after treatment
Method: as §1, §2

[5] = test system: miRNA expression in BLM melanoma cells; test: miRNA expression chip analysis; assay type: cell-based, human
Method: microRNA was isolated from BLM cells using the miRNeasy kit (Qiagen, Hilden, Germany) according to the procedure described by the manufacturer. miRNA expression analysis was performed on BLM melanoma cells (five groups: untreated; 200 μM, 8 mM ascorbate treated, 4 and 12 h after the 1 h treatment, all in triplicates) using the human miRNA Microarray Release 14.0, 8x15K (Agilent, Waldbronn, Germany) based on Sanger miRbase (release 14.0). Two hundred nanograms of RNA were used per sample. The miRNA expression analysis was kindly performed at the Genomic Core Facility of the European Molecular Biology Laboratory (EMBL, Heidelberg, Germany) according to the supplier’s instructions. Evaluation of raw data generated at the Genomic Core Facility of the EMBL was performed as described previously ([32]).
Figure 6 Ascorbate alters the expression of miRNA in melanoma cells. A miRNA expression chip analysis was performed on human metastatic BLM melanoma cells (5 groups: untreated, 200 μM ascorbate, 8 mM ascorbate, both 4 and 12 h after ascorbate exposure; all in triplicates) using the human miRNA Microarray Release 14.0, 8x15K (Agilent Technologies) based on Sanger miRbase (release 14.0). A total of 151 miRNAs were differentially expressed in response to ascorbate.

[6] = test system: 9 human melanoma cell lines; parameters: method as in PMID 24330097; details: ref [5], cited from earlier work
[7] = test system: 60 cancer cell lines of the NCI60 panel; parameters: method as in PMID 24330097; details: ref [5], read-out: overall IC50 of all 60 cancer cell lines; cited from earlier work
[8] = parameters: method as in PMID 23670640; details: i.v. administration of 70 g/m^2; ref [16]; cited from earlier work
LOX-IMVI melanoma cells = test system: LOX-IMVI melanoma cells; parameters: method as in PMID 24330097; details: 8 mM, ref [5]; cited from earlier work
[9] = test system: GLUT-1 expression (HIF-1α downstream target) in melanoma cell lines; parameters: method as in PMID 24330097; details: treatment at the individual IC50 concentrations, ref [5]; cited from earlier work
[10] = 8 mM vs. 200 μM for 1 h, after 12 h
[11] = 12 h after 1 h exposure, 8 mM vs. 200 μM ascorbate

## O=C1O[C@H]([C@@H](O)CO)C(O)=C1O [ascorbate, ascorbic acid]
BLM melanoma cells; 2 to 8 h after exposure
  G2/M fraction of cells: steadily increased
BLM melanoma cells; 12 h post-treatment
  sub-G1 fraction of DNA fragmented cells (indicative for apoptosis): prominent increase
BLM melanoma cells; 20 h post-treatment
  cell cycle shift toward sub-G1 fraction: completely shifted toward the sub-G1 fraction
[1]
  overall HDAC inhibition: only a marginal inhibitory activity
[2]
  inhibition of the 11 human HDACs: neither the physiological 50 μM nor the pharmacologic 8 mM ascorbate showed a significant inhibition
[3]
  increase of DNMT activity: 4%
[4]
  increase of DNMT activity: 18%
[5]; 200 μM or 8 mM for 1 h, 4 and 12 h after exposure
  number of miRNAs differentially expressed in response to ascorbate: 151
[5]; [10]
  number of up-regulated miRNAs: 32
  up-regulation of the 32 miRNAs: 4- to 38 fold
[5]; [11]
  Up-regulation of hsa-miR-99b: 2.44 2 × log^2
  Up-regulation of hsa-miR-125b-2: 2.8 2 × log^2
  Up-regulation of hsa-miR-134: 2.15 2 × log^2
  Up-regulation of hsa-miR-135a: 2.45 2 × log^2
  Up-regulation of hsa-miR-339-3p: 2.47 2 × log^2
  Up-regulation of hsa-miR-345: 2.82 2 × log^2
  Up-regulation of hsa-miR-375: 3.65 2 × log^2
  Up-regulation of hsa-miR-422a: 4.29 2 × log^2
  Up-regulation of hsa-miR-490-5p: 3.91 2 × log^2
  Up-regulation of hsa-miR-516a-3p: 2.56 2 × log^2
  Up-regulation of hsa-miR-564: 3.28 2 × log^2
  Up-regulation of hsa-miR-583: 3.97 2 × log^2
  Up-regulation of hsa-miR-596: 5.26 2 × log^2
  Up-regulation of hsa-miR-614: 2.61 2 × log^2
  Up-regulation of hsa-miR-617: 2.33 2 × log^2
  Up-regulation of hsa-miR-629: 3.38 2 × log^2
  Up-regulation of hsa-miR-630: 4.3 2 × log^2
  Up-regulation of hsa-miR-654-5p: 3.39 2 × log^2
  Up-regulation of hsa-miR-662: 3.59 2 × log^2
  Up-regulation of hsa-miR-663: 2.05 2 × log^2
  Up-regulation of hsa-miR-708: 3.48 2 × log^2
  Up-regulation of hsa-miR-718: 2.97 2 × log^2
  Up-regulation of hsa-miR-887: 5.14 2 × log^2
  Up-regulation of hsa-miR-1181: 2.06 2 × log^2
  Up-regulation of hsa-miR-1225-5p: 2.38 2 × log^2
  Up-regulation of hsa-miR-1228: 2.24 2 × log^2
  Up-regulation of hsa-miR-1246: 2.13 2 × log^2
  Up-regulation of hsa-miR-1268: 2.84 2 × log^2
  Up-regulation of hsa-miR-1915: 2.22 2 × log^2
  Up-regulation of hsa-miR-1972: 2.22 2 × log^2
  Up-regulation of hsa-miR-1973: 3.08 2 × log^2
  Up-regulation of hsa-miR-2117: 2.65 2 × log^2
[6]; NCI60 melanoma cell lines
  IC50 for all melanoma cell lines: low millimolar range
[6]; NCI60 melanoma cell lines, read-out: IC50 for all melanoma cell lines
  IC50: 3.1 mM
[6]; NCI60 melanoma cell lines, read-out: IC50 range across melanoma cell lines
  IC50: 0.2 to 8.5 mM
[6]; physiological ascorbate (200 μM)
  cytotoxic effect on melanoma cells: no cytotoxic effect
[7]
  IC50: 4.5 mM
[8]
  blood peak concentration: up to 49 mM
LOX-IMVI melanoma cells
  intracellular peroxide radicals: high amount
  percentage of sub-G1 (apoptotic) cells determined by FACS: increased percentage
[9]
  GLUT-1 expression: decreased
